Like-named read-outs stand apart in the source and are kept apart here.
Target: Human Factor D (Homo sapiens (Human), UniProt P00746)
Assay: Human Factor D Assay
Format: biochemical
Procedure, shortened: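 Factor D (from human serum) 80 nM final + cpd, 5 min RT, 50 mM Tris/1M NaCl pH 7.5; add Z-L-Lys-SBzl 100 μM and DTNB 100 μM final. IC50 by nonlinear fit of rates vs [cpd].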

[1] = Table 3, Human Factor D 80 nM, substrate Z-L-Lys-SBzl, read-out: IC50 (Stars)

Human Factor D, sequence (P00746 26-253): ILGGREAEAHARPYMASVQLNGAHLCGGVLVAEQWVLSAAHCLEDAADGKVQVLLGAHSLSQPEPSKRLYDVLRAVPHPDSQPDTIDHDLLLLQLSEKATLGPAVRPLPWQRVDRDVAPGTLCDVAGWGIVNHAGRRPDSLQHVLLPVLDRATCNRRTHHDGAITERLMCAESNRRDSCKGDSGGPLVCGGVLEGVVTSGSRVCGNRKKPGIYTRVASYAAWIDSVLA

SMILES | IC50 [1] [µM] | IC50 [µM]
CC(=O)c1nn(CC(=O)N2C[C@H](F)C[C@H]2C(=O)Nc2nc(Br)ccc2C)c2ccc(-c3cnc(C)cn3)cc12 [Compound 467, (2S,4R)-1-(2-(3-Acetyl-5-(5-methylpyrazin-2-yl)-1H-indazol-1-yl)acetyl)-N-(6-bromo-3-methylpyridin-2-yl)-4-fluoropyrrolidine-2-carboxamide] | < 1 | 
CC(=O)c1nn(CC(=O)N2C[C@H](F)C[C@H]2C(=O)Nc2nc(Br)ccc2C)c2ccc(-c3ccnc(C)n3)cc12 [Compound 468, (2S,4R)-1-(2-(3-Acetyl-5-(2-methylpyrimidin-4-yl)-1H-indazol-1-yl)acetyl)-N-(6-bromo-3-methylpyridin-2-yl)-4-fluoropyrrolidine-2-carboxamide] | < 1 | 
CC(=O)c1nn(CC(=O)N2C[C@H](F)C[C@H]2c2nc(-c3cccc(Br)n3)c[nH]2)c2ccc(-c3cnc(C)nc3)cc12 [Compound 469, 2-(3-acetyl-5-(2-Methylpyrimidin-5-yl)-1H-indazol-1-yl)-1-((2S,4R)-2-(4-(6-bromopyridin-2-yl)-1H-imidazol-2-yl)-4-fluoropyrrolidin-1-yl)ethan-1-one] | < 1 | 
Cc1cccc(NC(=O)[C@@H]2[C@H]3CC[C@H](C3)N2C(=O)Cn2cc(C(N)=O)c3cc(-c4cnc(C)nc4)ccc32)n1 [Compound 473, 1-(2-((1R,3S,4S)-3-(6-Methylpyridin-2-ylcarbamoyl)-2-azabicyclo[2.2.1]heptan-2-yl)-2-oxoethyl)-5-(2-methylpyrimidin-5-yl)-1H-indole-3-carboxamide] | > 10 | 
CC(=O)c1nn(CC(=O)N2C[C@H](F)C[C@H]2C(=O)NCC(F)=C(C)C)c2ccc(-c3cnc(C)nc3)cc12 [Compound 474, (2S,4R)-1-(2-(3-acetyl-5-(2-methylpyrimidin-5-yl)-1H-indazol-1-yl)acetyl)-4-fluoro-N-(2-fluoro-3-methylbut-2-en-1-yl)pyrrolidine-2-carboxamide] | < 1 | 
CC(=O)c1nn(CC(=O)N2C3CC[C@@H](C3)[C@H]2C(=O)Nc2cccc(Br)n2)c2ccc(-c3cnc(C)nc3)cc12 [Compound 475, (3S,4S)-2-(2-(3-Acetyl-5-(2-methylpyrimidin-5-yl)-1H-indazol-1-yl)acetyl)-N-(6-bromopyridin-2-yl)-2-azabicyclo[2.2.1]heptane-3-carboxamide] | < 1 | 
CC(=O)c1nn(CC(=O)N2C[C@H](F)C[C@H]2C(=O)Nc2ccn(-c3ccc(F)cn3)n2)c2ccc(-c3cnc(C)nc3)cc12 [Compound 479, (2S,4R)-1-(2-(3-acetyl-5-(2-Methylpyrimidin-5-yl)-1H-indazol-1-yl)acetyl)-4-fluoro-N-(1-(5-fluoropyridin-2-yl)-1H-pyrazol-3-yl)pyrrolidine-2-carboxamide] | < 1 | 
CC(=O)c1nn(CC(=O)N2[C@H](C(=O)Nc3cccc(Br)n3)C[C@@]3(C)C[C@@H]23)c2ccc(-c3cnc(N)nc3)cc12 [Compound 480, (1R,3S,5R)-2-(2-(3-Acetyl-5-(2-aminopyrimidin-5-yl)-1H-indazol-1-yl)acetyl)-N-(6-bromopyridin-2-yl)-5-methyl-2-azabicyclo[3.1.0]hexane-3-carboxamide] | < 1 | 
CC(=O)c1cn(CC(=O)N2CC[C@H]2C(=O)Nc2cccc(C)n2)c2ccc(-c3cnc(C)nc3)cc12 [Compound 481, (S)-1-(2-(3-a=Acetyl-5-(2-methylpyrimidin-5-yl)-1H-indol-1-yl)acetyl)-N-(6-methylpyridin-2-yl)azetidine-2-carboxamide] | > 10 | 
CC(=O)c1nn(CC(=O)N2[C@@H]3C[C@@H]3C[C@H]2C(=O)NCC(F)=C(C)C)c2ccc(-c3cnc(C)nc3)cc12 [Compound 482, (1R,3S,5R)-2-(2-(3-acetyl-5-(2-methylpyrimidin-5-yl)-1H-indazol-1-yl)acetyl)-N-(2-fluoro-3-methylbut-2-en-1-yl)-2-azabicyclo[3.1.0] hexane-3-carboxamide] | < 1 | 
CC(=O)c1nn(CC(=O)N2C[C@H](F)C[C@H]2C(=O)NCc2cccc(Br)n2)c2ccc(-c3cnc(C)nc3)cc12 [Compound 483, (2S,4R)-1-(2-(3-Acetyl-5-(2-methylpyrimidin-5-yl)-1H-indazol-1-yl)acetyl)-N-((6-bromopyridin-2-yl)methyl)-4-fluoropyrrolidine-2-carboxamide] | < 1 | 
COc1cc(Br)nc(NC(=O)[C@@H]2C[C@@]3(C)C[C@H]3N2C(=O)Cn2nc(C(C)=O)c3cc(-c4cnc(C)nc4)ccc32)c1 [Compound 484, (1R,3S,5R)-2-(2-(3-Acetyl-5-(2-methylpyrimidin-5-yl)-1H-indazol-1-yl)acetyl)-N-(6-bromo-4-methoxypyridin-2-yl)-5-methyl-2-azabicyclo[3.1.0]hexane-3-carboxamide] | < 1 | 
CC(=O)c1nn(CC(=O)N2[C@H](C(=O)Nc3nc(Br)ccc3C)C[C@@]3(C)C[C@@H]23)c2ccc(-c3cnc(C)nc3)cc12 [Compound 485, (1R,3S,5R)-2-(2-(3-Acetyl-5-(2-methylpyrimidin-5-yl)-1H-indazol-1-yl)acetyl)-N-(6-bromo-3-methylpyridin-2-yl)-5-methyl-2-azabicyclo[3.1.0]hexane-3-carboxamide] | < 1 | 
COc1ncc(-c2ccc3c(c2)c(C(C)=O)nn3CC(=O)N2[C@H](C(=O)Nc3cncc(Br)n3)C[C@@]3(C)C[C@@H]23)cn1 [Compound 486] | < 1 | 
CC(=O)c1nn(CC(=O)N2C[C@H]3C[C@H]3[C@H]2C(=O)Nc2nc(Br)ccc2C)c2ccc(-c3cnc(C)nc3)cc12 [Compound 488, (1R,2S,5S)-3-(2-(3-Acetyl-5-(2-methylpyrimidin-5-yl)-1H-indazol-1-yl)acetyl)-N-(6-bromo-3-methylpyridin-2-yl)-3-azabicyclo[3.1.0]hexane-2-carboxamide] | < 1 | 
Cc1cccc(NC(=O)[C@@H]2[C@H]3CC[C@H](C3)N2C(=O)Cn2cc(C(N)=O)c3cc(-c4ccc5ccccc5c4)ccc32)n1 [Compound 489, 1-(2-((1R,3S,4S)-3-((6-Methylpyridin-2-yl)carbamoyl)-2-azabicyclo[2.2.1]heptan-2-yl)-2-oxoethyl)-5-(naphthalen-2-yl)-1H-indole-3-carboxamide] | > 10 | 
CC(=O)c1nn(CC(=O)N2[C@@H]3CC[C@@H](C3)[C@H]2C(=O)Nc2cccc(Br)n2)c2ccc(-c3cnc(C)nc3)cc12 [Compound 491, (1R,3S,4S)-2-(2-(3-acetyl-5-(2-methylpyrimidin-5-yl)-1H-indazol-1-yl)acetyl)-N-(6-bromopyridin-2-yl)-2-azabicyclo[2.2.1] heptane-3-carboxamide] |  | < 1
Cc1cccc(NC(=O)[C@@H]2[C@H]3CC[C@H](C3)N2C(=O)Cn2cc(C(N)=O)c3cc(-c4cccc(C#N)c4)ccc32)n1 [Compound 497, 5-(3-Cyanophenyl)-1-(2-((1R,3S,4S)-3-(6-methylpyridin-2-ylcarbamoyl)-2-azabicyclo[2.2.1]heptan-2-yl)-2-oxoethyl)-1H-indole-3-carboxamide] | > 10 | 
Cc1cccc(NC(=O)[C@@H]2[C@H]3CC[C@H](C3)N2C(=O)Cn2cc(C(N)=O)c3cc(-c4ccc(N)nc4)ccc32)n1 [Compound 498, 5-(6-Aminopyridin-3-yl)-1-(2-((1R,3S,4S)-3-(6-methylpyridin-2-ylcarbamoyl)-2-azabicyclo[2.2.1]heptan-2-yl)-2-oxoethyl)-1H-indole-3-carboxamide] | > 10 | 
Cc1cccc(NC(=O)[C@@H]2[C@H]3CC[C@H](C3)N2C(=O)Cn2cc(C(N)=O)c3cc(-c4ccc5cccnc5c4)ccc32)n1 [Compound 499, 1-(2-((1R,3S,4S)-3-(6-Methylpyridin-2-ylcarbamoyl)-2-azabicyclo[2.2.1]heptan-2-yl)-2-oxoethyl)-5-(quinolin-7-yl)-1H-indole-3-carboxamide] |  | 1 to 10
Cc1cccc(NC(=O)[C@@H]2[C@H]3CC[C@H](C3)N2C(=O)Cn2cc(C(N)=O)c3cc(-c4ccc(F)nc4)ccc32)n1 [Compound 500, 5-(6-Fluoropyridin-3-yl)-1-(2-((1R,3S,4S)-3-(6-methylpyridin-2-ylcarbamoyl)-2-azabicyclo[2.2.1]heptan-2-yl)-2-oxoethyl)-1H-indole-3-carboxamide] |  | > 10
Cc1cccc(NC(=O)[C@@H]2[C@H]3CC[C@H](C3)N2C(=O)Cn2cc(C(N)=O)c3cc(-c4cccnc4)ccc32)n1 [Compound 501, 1-(2-((1R,3S,4S)-3-(6-Methylpyridin-2-ylcarbamoyl)-2-azabicyclo[2.2.1]heptan-2-yl)-2-oxoethyl)-5-(pyridin-3-yl)-1H-indole-3-carboxamide] | > 10 | 
CC(=O)c1nn(CC(=O)N2C[C@H](F)C[C@H]2C(=O)NC/C(F)=C(/C)c2cccc(Cl)c2)c2ccc(-c3cnc(C)nc3)cc12 [Compound 503, (2S,4R)-1-(2-(3-acetyl-5-(2-methylpyrimidin-5-yl)-1H-indazol-1-yl)acetyl)-N-((E)-3-(3-chlorophenyl)-2-fluorobut-2-en-1-yl)-4-fluoropyrrolidine-2-carboxamide] | < 1 | 
CC(=O)c1nn(CC(=O)N2C[C@H](F)C[C@H]2C(=O)Nc2cccc(Br)n2)c2ccc(-c3ccc4ncncc4c3)cc12 [Compound 504, (2S,4R)-1-(2-(3-Acetyl-5-(quinazolin-6-yl)-1H-indazol-1-yl)acetyl)-N-(6-bromopyridin-2-yl)-4-fluoropyrrolidine-2-carboxamide] | < 1 | 
CC(=O)c1nn(CC(=O)N2C[C@H](F)C[C@H]2C(=O)Nc2cccc(Br)n2)c2ccc(-c3cnc(OCC(F)(F)F)nc3)cc12 [Compound 505, (2S,4R)-1-(2-(3-Acetyl-5-(2-(S2,2,2-trifluoroethoxy)pyrimidin-5-yl)-1H-indazol-1-yl)acetyl)-N-(6-bromopyridin-2-yl)-4-fluoropyrrolidine-2-carboxamide] | < 1 | 
CC(=O)c1nn(CC(=O)N2[C@@H]3C[C@@H]3C[C@H]2C(=O)NC/C(F)=C(/C)c2cccc(Cl)c2)c2ccc(-c3cnc(C)nc3)cc12 [Compound 506, (1R,3S,5R)-2-(2-(3-Acetyl-5-(2-methylpyrimidin-5-yl)-1H-indazol-1-yl)acetyl)-N-((E)-3-(3-chlorophenyl)-2-fluorobut-2-en-1-yl)-2-azabicyclo[3.1.0]hexane-3-carboxamide] | < 1 | 

From patent US10287301B2 (Achillion Pharmaceuticals, Inc., priority 2015, dated 2019)
